According to US10383948B2, “Anti-cMet antibody drug conjugates and methods for their use” (AbbVie Inc., priority 2016, dated 2019):

Columns and labels:
[1] = tested on: IM-95; assay: Cytotoxicity assay (CellTiter-Glo, 6 days); type: cell-based, human; settings: IM-95 gastric cancer
Protocol: (§1) Tumor cells were plated at 2000-5000 cells/well in 180 μL growth medium containing 10% FBS in 96-well plates, and cultured at 37° C. in a humidified incubator with 5% C02. The following day, titrations of antibodies or ADCs in 20 μL were added and cells were incubated for 6 days. Cell viability was determined using a CellTiter-Glo Luminescent Cell Viability Assay (Promega) according to the manufacturer's instructions. A non-binding, irrelevant negative control ADC conjugated to MMAE was also included in all assays to confirm that cell killing was antigen dependent.

[2] = tested on: SNU-620; assay: Cytotoxicity assay (CellTiter-Glo, 6 days); type: cell-based, human; settings: SNU-620 gastric cancer
Protocol: as §1

[3] = tested on: HT-29; assay: Cytotoxicity assay (CellTiter-Glo, 6 days); type: cell-based, human; settings: HT-29 colorectal cancer
Protocol: as §1

[4] = tested on: MCF-7; assay: Cytotoxicity assay (CellTiter-Glo, 6 days); type: cell-based, human; settings: MCF-7 breast cancer; relative to untreated control at ≤1 μg/mL in a six day proliferation
Protocol: as §1

[5] = tested on: metastatic solid tumors; assay: Phase 1 monotherapy, best response (RECIST 1.1); type: in vivo, human; settings: all treated patients
Source text: Three to 6 subjects will be enrolled in each cohort and dosed once every 21 (one dose per 21-day Cycle) or 14 (2 doses per 28-day Cycle) days until disease progression or unacceptable toxicity to determine the maximum tolerated dose (MTD) or maximally administered dose (MAD). Dose limiting toxicity (DLT) definitions will be used to make decisions regarding dose-escalation. […] On the dose-expansion, subjects with advanced solid tumors with cMet overexpression, MET exon 14 mutation or MET amplification will be enrolled.
Dosing began at 0.15 mg/kg and escalated to 0.3, 0.6, 1.2, 1.8, 2.4, 3.0 and 3.3 mg/kg in subsequent cohorts as tolerated. Alternative doses (intermediate or higher) or dosing schedules may be employed based on clinical safety and PK data. A dose of 2.7 mg/kg was also utilized based on the clinical safety and PK data. […] It is not administered as an intravenous push or bolus.
Baseline radiographic tumor assessments with CT (or MRI) of the head, chest, abdomen, and pelvis will be obtained no more than 28 days prior to Cycle 1 Day 1. CT scan (or MRI) will then be repeated approximately every 6 weeks after start of therapy to evaluate the extent of tumor burden. Radiographic tumor assessments will continue until disease progression documented by imaging, start of a new anti cancer therapy, death or withdrawal of consent. Response evaluation will be based on RECIST version 1.1. […]

[6] = tested on: SW48; assay: Cytotoxicity assay (CellTiter-Glo, 6 days); type: cell-based, human; settings: SW48 colorectal cancer; relative to untreated control at ≤1 μg/mL in a six day proliferation
Protocol: as §1
as §1, with “of” for “of antibodies or”, “antigen-dependent.” for “antigen dependent.”

[7] = tested on: KP4; assay: Cytotoxicity assay (CellTiter-Glo, 6 days); type: cell-based, human; settings: KP4 pancreatic cancer; relative to untreated control at ≤1 μg/mL in a six day proliferation
Protocol: as §1
as §1, with “of” for “of antibodies or”, “antigen-dependent.” for “antigen dependent.”

[8] = tested on: U87MG; assay: Cytotoxicity assay (CellTiter-Glo, 6 days); type: cell-based, human; settings: U-87MG glioblastoma; relative to untreated control at ≤1 μg/mL in a six day proliferation
Protocol: as §1
as §1, with “of” for “of antibodies or”, “antigen-dependent.” for “antigen dependent.”

[9] = tested on: NCI-H1650; assay: Cytotoxicity assay (CellTiter-Glo, 6 days); type: cell-based, human; settings: NCI-H1650 lung cancer; relative to untreated control at ≤1 μg/mL in a six day proliferation
Protocol: as §1
as §1, with “of” for “of antibodies or”, “antigen-dependent.” for “antigen dependent.”

[10] = tested on: Hs746T; assay: Cytotoxicity assay (CellTiter-Glo, 6 days); type: cell-based, human
Protocol: as §1
as §1, with “of” for “of antibodies or”, “antigen-dependent.” for “antigen dependent.”

[11] = tested on: NCI-H441; assay: Cytotoxicity assay (CellTiter-Glo, 6 days); type: cell-based, human; settings: NCI-H441 lung cancer; relative to untreated control at ≤1 μg/mL in a six day proliferation
Protocol: as §1
as §1, with “of” for “of antibodies or”, “antigen-dependent.” for “antigen dependent.”

[12] = tested on: NCI-H1573; assay: Cytotoxicity assay (CellTiter-Glo, 6 days); type: cell-based, human; settings: NCI-H1573 lung cancer
Protocol: as §1
as §1, with “of” for “of antibodies or”, “antigen-dependent.” for “antigen dependent.”

[13] = tested on: EBC-1; assay: Cytotoxicity assay (CellTiter-Glo, 6 days); type: cell-based, human; settings: EBC-1 lung cancer; relative to untreated control at ≤1 μg/mL in a six day proliferation
Protocol: as §1
as §1, with “of” for “of antibodies or”, “antigen-dependent.” for “antigen dependent.”

[14] = tested on: A549; assay: Cytotoxicity assay (CellTiter-Glo, 6 days); type: cell-based, human; settings: A549 lung cancer; relative to untreated control at ≤1 μg/mL in a six day proliferation
Protocol: as §1
as §1, with “of” for “of antibodies or”, “antigen-dependent.” for “antigen dependent.”

[15] = relative to untreated control at ≤1 μg/mL in a six day proliferation
[16] = read-out: ABBV-399 IC50, cell proliferation assay, Table 7B

Question: For “ABBV-399: ADC comprised of the cMet targeting antibody ABT-700 conjugated to MMAE through a valine citrulline (vc) linker”, which “Maximal Killing” value [1, 15] is on record?
Answer: 53%

Question: And the IC50 [1, 16]?
Answer: 1.7 nM

Question: What about the “Maximal Killing” value [2, 15] of the same substance?
Answer: 80%

Question: And the IC50 [2, 16]?
Answer: 0.17 nM

Question: And the “Maximal Killing” value [3, 15]?
Answer: 70%

Question: And the IC50 [3, 16]?
Answer: 9 nM

Question: What about the “Maximal Killing” value [4] of the same substance?
Answer: 0%

Question: And the “best response: progressive disease” value ([5]; 17/40)?
Answer: 42.5%

Question: And the “best response: stable disease” value ([5]; 20/40)?
Answer: 50%

Question: And the “Maximal Killing” value [6]?
Answer: 0%

Question: What about the “Maximal Killing” value [7] of the same substance?
Answer: 53%

Question: What about the “Maximal Killing” value [8] of the same substance?
Answer: 30%

Question: What about the “Maximal Killing” value [9] of the same substance?
Answer: 13%

Question: What about the “Maximal Killing” value ([10]; Hs746T gastric cancer, relative to untreated control at ≤1 μg/mL in a six day proliferation) of the same substance?
Answer: 87%

Question: And the “inhibition of proliferation” value ([10]; MET-amplified Hs746T gastric cancer cells, FIG. 4)?
Answer: inhibited proliferation

Question: What about the “Maximal Killing” value [11] of the same substance?
Answer: 56%

Question: And the “Maximal Killing” value [12, 15]?
Answer: 18%

Question: And the IC50 [12, 16]?
Answer: 18 nM

Question: And the “Maximal Killing” value [13]?
Answer: 96%

Question: And the “Maximal Killing” value [14]?
Answer: 22%
